The values below come from ChEMBL document CHEMBL5131520, “Synthesis and Antitumor Activity of Diosgenin Hydroxamic Acid and Quaternary Phosphonium Salt Derivatives” (ACS Med Chem Lett, 2022).

Structures can show the parent of a compound that is named as a salt.

One data set has as its system ASPC1. Nature of the data set: Antiproliferative activity against human ASPC1 cells assessed as inhibition of cell growth incubated for 48 hrs by CCK8 assay. The following applies: ASPC1, 48 h. Format: functional, cell-based. For orientation: Tetrazolium assays rely on reduction of a dye to a coloured formazan, in cell work by metabolically active cells.
The test system of another data set is NCI-H358. Nature of the data set: Antiproliferative activity against human NCI-H358 cells assessed as inhibition of cell growth incubated for 48 hrs by CCK8 assay. Format: functional, cell-based. The following applies: NCI-H358, 48 h.
A further data set has as its system HCT-116. Nature of the data set: Antiproliferative activity against human HCT-116 cells assessed as inhibition of cell growth incubated for 48 hrs by CCK8 assay. The class given is functional, cell-based. The conditions noted are these: HCT-116, 48 h.
The next data set relates to SW-620. Nature of the data set: Antiproliferative activity against human SW-620 cells assessed as inhibition of cell growth incubated for 48 hrs by CCK8 assay. Format: functional, cell-based. The following applies: SW-620, 48 h.
Data set [1] in a line: Water solubility of compound. Format: physicochemical. The conditions noted are these: buffer.

Usually IC50 stands for the concentration needed to halve the response being measured.

As to `C[C@@H]1CC[C@@]2(OC1)O[C@H]1C[C@H]3[C@@H]4CC=C5C[C@@H](OC(=O)/C=C/C(=O)NO)CC[C@]5(C)[C@H]4CC[C@]3(C)[C@H]1[C@@H]2C`, the IC50 in the data set with ASPC1 was determined as 11.4 µM; in the data set on NCI-H358 it was 36.8 µM; in the data set on HCT-116, 39 µM; in the data set with SW-620, 16.9 µM. Also, the solubility entry in data set [1] is reported as “Soluble”.

Regarding `C[C@@H]1CC[C@@]2(OC1)O[C@H]1C[C@H]3[C@@H]4CC=C5C[C@@H](OC(=O)CCCC[P+](c6ccccc6)(c6ccccc6)c6ccccn6)CC[C@]5(C)[C@H]4CC[C@]3(C)[C@H]1[C@@H]2C.[Br-]`, the IC50 in the data set on ASPC1 was found to be 0.648 µM; with NCI-H358, 3.54 µM; in the data set with HCT-116, 4.25 µM; in the data set with SW-620 it was 0.778 µM. Further, the solubility result in data set [1] is “Soluble”.

On to `C[C@@H]1CC[C@@]2(OC1)O[C@H]1C[C@H]3[C@@H]4CC=C5C[C@@H](OC(=O)CCCC[P+](C6CCCCC6)(C6CCCCC6)C6CCCCC6)CC[C@]5(C)[C@H]4CC[C@]3(C)[C@H]1[C@@H]2C.[Br-]`, for which the IC50 with ASPC1 was 0.185 µM; with NCI-H358, 4.04 µM; with HCT-116, 4 µM; with SW-620 it was 0.448 µM. In data set [1], the solubility result was “Soluble”.

Take `COc1cccc2c1C(=O)c1c(O)c3c(c(O)c1C2=O)C[C@@](O)(C(=O)CO)C[C@@H]3O[C@H]1C[C@H](N)[C@H](O)[C@H](C)O1` [DOXORUBICIN HYDROCHLORIDE]: the IC50 in the data set with ASPC1 is less than 5 µM; in the data set on NCI-H358 it was less than 5 µM; with HCT-116 it was more than 1.25 µM; in the data set with SW-620, less than 5 µM.

Consider `C[C@@H]1CC[C@@]2(OC1)O[C@H]1C[C@H]3[C@@H]4CC=C5C[C@@H](OC(=O)CCCCCCC(=O)NO)CC[C@]5(C)[C@H]4CC[C@]3(C)[C@H]1[C@@H]2C`, for which the IC50 is 22.9 µM with ASPC1, 23.1 µM with NCI-H358, more than 40 µM in the data set on HCT-116 and 11.1 µM in the data set with SW-620. Further, the solubility entry in data set [1] is given as “Soluble”.

Consider `C[C@@H]1CC[C@@]2(OC1)O[C@H]1C[C@H]3[C@@H]4CC=C5C[C@@H](OC(=O)CCCC(=O)NO)CC[C@]5(C)[C@H]4CC[C@]3(C)[C@H]1[C@@H]2C`, for which the half-maximal inhibitory concentration (IC50) with ASPC1 came to 2.14 µM; in the data set with NCI-H358, 4.32 µM; in the data set on HCT-116, 32.5 µM; in the data set with SW-620, 2.43 µM. Also, the solubility entry in data set [1] is “Soluble”.

As to `CCCCCCCC[P+](CCCCCCCC)(CCCCCCCC)CCCCC(=O)O[C@H]1CC[C@@]2(C)C(=CC[C@H]3[C@@H]4C[C@@H]5O[C@]6(CC[C@@H](C)CO6)[C@@H](C)[C@@H]5[C@@]4(C)CC[C@@H]32)C1.[Br-]`, the IC50 in the data set on ASPC1 was 7.63 µM; in the data set on NCI-H358 it was 27.1 µM; in the data set with HCT-116 it was 31.4 µM; with SW-620, 29 µM. For the same molecule, in data set [1], the solubility result is recorded as “Soluble”.

For the molecule `C[C@@H]1CC[C@@]2(OC1)O[C@H]1C[C@H]3[C@@H]4CC=C5C[C@@H](OC(=O)CCC(=O)NO)CC[C@]5(C)[C@H]4CC[C@]3(C)[C@H]1[C@@H]2C`, the IC50 in the data set on ASPC1 was 7.99 µM; in the data set with NCI-H358 it was 7.47 µM; in the data set on HCT-116 it was 31.8 µM; with SW-620 it was 5.22 µM. Besides, the solubility result in data set [1] was “Soluble”.

On to `C[C@@H]1CC[C@@]2(OC1)O[C@H]1C[C@H]3[C@@H]4CC=C5C[C@@H](OC(=O)CCCC[P+](C)(C)C)CC[C@]5(C)[C@H]4CC[C@]3(C)[C@H]1[C@@H]2C.[Br-]`, for which the half-inhibitory concentration (IC50) amounted to 7.44 µM with ASPC1, 13.6 µM in the data set with NCI-H358, 10.1 µM with HCT-116 and 9.59 µM with SW-620. Also, the solubility result in data set [1] is recorded as “Soluble”.

Turning to `C[C@@H]1CC[C@@]2(OC1)O[C@H]1C[C@H]3[C@@H]4CC=C5C[C@@H](OC(=O)CCCC[P+](c6ccc(F)cc6)(c6ccc(F)cc6)c6ccc(F)cc6)CC[C@]5(C)[C@H]4CC[C@]3(C)[C@H]1[C@@H]2C.[Br-]`, the IC50 is 0.728 µM in the data set with ASPC1, 3.82 µM in the data set on NCI-H358, 4.16 µM in the data set with HCT-116 and 1.42 µM in the data set on SW-620. Moreover, the solubility entry in data set [1] is reported as “Soluble”.

Consider `CC[P+](CC)(CC)CCCCC(=O)O[C@H]1CC[C@@]2(C)C(=CC[C@H]3[C@@H]4C[C@@H]5O[C@]6(CC[C@@H](C)CO6)[C@@H](C)[C@@H]5[C@@]4(C)CC[C@@H]32)C1.[Br-]`, for which the IC50 was 2.62 µM in the data set on ASPC1, 3.51 µM in the data set with NCI-H358, 5 µM in the data set with HCT-116 and 4.39 µM in the data set on SW-620. Also, in data set [1], the solubility result is recorded as “Soluble”.

On to `C[C@@H]1CC[C@@]2(OC1)O[C@H]1C[C@H]3[C@@H]4CC=C5C[C@@H](O)CC[C@]5(C)[C@H]4CC[C@]3(C)[C@H]1[C@@H]2C` [DISOGENIN], for which the IC50 in the data set on ASPC1 is 63.1 µM; in the data set with NCI-H358, more than 40 µM; with HCT-116, 31.4 µM; in the data set with SW-620 it was more than 40 µM.

With `C[C@@H]1CC[C@@]2(OC1)O[C@H]1C[C@H]3[C@@H]4CC=C5C[C@@H](OC(=O)c6nccnc6C(=O)NO)CC[C@]5(C)[C@H]4CC[C@]3(C)[C@H]1[C@@H]2C`, the IC50 with ASPC1 is 9.29 µM; in the data set with NCI-H358, 35.5 µM; in the data set with HCT-116, 35.8 µM; in the data set with SW-620 it was more than 40 µM. For the same molecule, in data set [1], the solubility result is given as “Soluble”.

As to `C[C@@H]1CC[C@@]2(OC1)O[C@H]1C[C@H]3[C@@H]4CC=C5C[C@@H](OC(=O)CCCC[P+](c6ccc(Cl)cc6)(c6ccc(Cl)cc6)c6ccc(Cl)cc6)CC[C@]5(C)[C@H]4CC[C@]3(C)[C@H]1[C@@H]2C.[Br-]`, the IC50 with ASPC1 stood at 0.652 µM; in the data set with NCI-H358, 1.71 µM; in the data set on HCT-116 it was 4.32 µM; in the data set on SW-620, 6.8 µM. For the same molecule, the solubility result in data set [1] is “Soluble”.

For the molecule `C[C@@H]1CC[C@@]2(OC1)O[C@H]1C[C@H]3[C@@H]4CC=C5C[C@@H](OC(=O)CCCC[P+](c6ccccc6)(c6ccccc6)C6CCCCC6)CC[C@]5(C)[C@H]4CC[C@]3(C)[C@H]1[C@@H]2C.[Br-]`, the IC50 is 0.313 µM with ASPC1, 3.52 µM in the data set on NCI-H358, 4.15 µM with HCT-116 and 0.873 µM with SW-620. Besides, the solubility entry in data set [1] is “Soluble”.

As for `C[C@@H]1CC[C@@]2(OC1)O[C@H]1C[C@H]3[C@@H]4CC=C5C[C@@H](OC(=O)CCCCC(=O)NO)CC[C@]5(C)[C@H]4CC[C@]3(C)[C@H]1[C@@H]2C`, the IC50 came out at 2.31 µM with ASPC1, 12.6 µM in the data set with NCI-H358, 38.8 µM in the data set with HCT-116 and 1.92 µM in the data set with SW-620. In addition, the solubility entry in data set [1] is recorded as “Soluble”.

For `Cc1cc(C(=O)NO)cc(C(=O)O[C@H]2CC[C@@]3(C)C(=CC[C@H]4[C@@H]5C[C@@H]6O[C@]7(CC[C@@H](C)CO7)[C@@H](C)[C@@H]6[C@@]5(C)CC[C@@H]43)C2)c1`, the IC50 in the data set on ASPC1 was 7.8 µM; with NCI-H358 it was 15.2 µM; in the data set on HCT-116, 32.8 µM; in the data set with SW-620 it was 10.7 µM. Moreover, in data set [1], the solubility result was “Soluble”.

In the case of `C[C@@H]1CC[C@@]2(OC1)O[C@H]1C[C@H]3[C@@H]4CC=C5C[C@@H](OC(=O)c6cccc(C(=O)NO)c6)CC[C@]5(C)[C@H]4CC[C@]3(C)[C@H]1[C@@H]2C`, the IC50 was determined as 4.96 µM in the data set on ASPC1, 9.54 µM in the data set with NCI-H358, 34.4 µM with HCT-116 and 6.8 µM in the data set on SW-620. Moreover, the solubility entry in data set [1] is “Soluble”.

Turning to `C[C@@H]1CC[C@@]2(OC1)O[C@H]1C[C@H]3[C@@H]4CC=C5C[C@@H](OC(=O)CCCC[P+](c6ccccc6)(c6ccccc6)c6cccc(-c7ccccc7)c6)CC[C@]5(C)[C@H]4CC[C@]3(C)[C@H]1[C@@H]2C.[Br-]`, the IC50 in the data set with ASPC1 came out at 0.29 µM; in the data set on NCI-H358, 3.66 µM; in the data set with HCT-116, 4.22 µM; in the data set with SW-620 it was 1.16 µM. In data set [1], the solubility entry is “Soluble”.

As for `CCCC[P+](CCCC)(CCCC)CCCCC(=O)O[C@H]1CC[C@@]2(C)C(=CC[C@H]3[C@@H]4C[C@@H]5O[C@]6(CC[C@@H](C)CO6)[C@@H](C)[C@@H]5[C@@]4(C)CC[C@@H]32)C1.[Br-]`, the IC50 amounted to 1.09 µM with ASPC1, 2.18 µM in the data set on NCI-H358, 3.99 µM with HCT-116 and 1.17 µM in the data set with SW-620. The solubility entry in data set [1] was “Soluble”.

Consider `C[C@@H]1CC[C@@]2(OC1)O[C@H]1C[C@H]3[C@@H]4CC=C5C[C@@H](OC(=O)CCCCCCCCC(=O)NO)CC[C@]5(C)[C@H]4CC[C@]3(C)[C@H]1[C@@H]2C`, for which the IC50 came to 15 µM in the data set on ASPC1, 10.4 µM with NCI-H358, 33.4 µM in the data set on HCT-116 and 23.4 µM in the data set with SW-620. Also, the solubility result in data set [1] is on record as “Soluble”.
